According to US4374147A, “13-Oxo-monic acid esters useful as antibacterial and antimycoplasmal agents” (Beecham Group Limited, priority 1980, dated 1983):

How the values were obtained:
Assay type in all cases: cell-based
[1] = test system: Ps. aeruginosa 10662; experiment: MIC by serial dilution in nutrient agar (human bacteria, Table 1); settings: Pseudomonas aeruginosa, 5% "chocolated" horse blood
[2] = test system: Strep.pneumoniae CN33; experiment: as above; settings: Streptococcus pneumoniae, 5% "chocolated" horse blood
[3] = test system: Staph.aureus Russell; experiment: as above; settings: Staphylococcus aureus; Staph.aureus Russell; nutrient agar, 5% "chocolated" horse blood; read-out: MIC
[4] = test system: Haemophilus influenzae Q1; experiment: as above; settings: Haemophilus influenzae, Q1
[5] = test system: Staph.aureus B4 (pen resis); experiment: MIC by agar dilution (veterinary bacteria, Table 2); settings: Staphylococcus aureus, diagnostic sensitivity test agar, 24 hours, 37° C.
Description: (§1) The MIC values were determined by agar dilution using diagnostic sensitivity test agar (Oxoid) using a multipoint inoculator delivering 0.001 ml of an inoculum adjusted to give 10^7 -10^8 organisms per ml and read after 24 hours incubation at 37° C.

[6] = test system: Strep.agalactiae SPA1; experiment: as above; settings: Streptococcus agalactiae, diagnostic sensitivity test agar, 24 hours, 37° C.
Description: as §1

[7] = test system: Strep.dysgalactiae SPD1; experiment: as above; settings: Streptococcus dysgalactiae, diagnostic sensitivity test agar, 24 hours, 37° C.
Description: as §1

[8] = test system: E.coli NCTC 10418; experiment: as above; settings: Escherichia coli, NCTC10418, diagnostic sensitivity test agar, 24 hours, 37° C.
Description: as §1

[9] = test system: Past.haemolytica PA5; experiment: as above; settings: Mannheimia haemolytica, diagnostic sensitivity test agar, 24 hours, 37° C.
Description: as §1

[10] = test system: Bord.bronchiseptica BO9; experiment: as above; settings: Bordetella bronchiseptica, diagnostic sensitivity test agar, 24 hours, 37° C.
Description: as §1

[11] = test system: Staph.aureus 152 (pen sens); experiment: as above; settings: Staphylococcus aureus, diagnostic sensitivity test agar, 24 hours, 37° C.
Description: as §1

[12] = test system: Bord.bronchiseptica BO8; experiment: as above; settings: Bordetella bronchiseptica, diagnostic sensitivity test agar, 24 hours, 37° C.
Description: as §1

[13] = test system: E.coli E1; experiment: as above; settings: Escherichia coli, diagnostic sensitivity test agar, 24 hours, 37° C.
Description: as §1

[14] = test system: Erysipelothrix rhusiopathiae NCTC 8163; experiment: as above; settings: NCTC8163, diagnostic sensitivity test agar, 24 hours, 37° C.
Description: as §1

[15] = test system: Past.multocida PA1; experiment: as above; settings: Pasteurella multocida, diagnostic sensitivity test agar, 24 hours, 37° C.
Description: as §1

[16] = test system: Past.multocida PA2; experiment: as above; settings: Pasteurella multocida, diagnostic sensitivity test agar, 24 hours, 37° C.
Description: as §1

[17] = test system: S.typhimurium S18; experiment: as above; settings: Salmonella enterica, diagnostic sensitivity test agar, 24 hours, 37° C.
Description: as §1

[18] = test system: S.dublin S7; experiment: as above; settings: Salmonella enterica, diagnostic sensitivity test agar, 24 hours, 37° C.
Description: as §1

[19] = test system: B. subtilis ATCC 6633; experiment: as above; settings: Bacillus subtilis, ATCC6633, diagnostic sensitivity test agar, 24 hours, 37° C.
Description: as §1

[20] = test system: Staph.aureus Oxford; experiment: as above; settings: Staphylococcus aureus, diagnostic sensitivity test agar, 24 hours, 37° C.
Description: as §1

[21] = test system: Corynebacterium pyogenes CY1; experiment: as above; settings: Trueperella pyogenes, diagnostic sensitivity test agar, 24 hours, 37° C.
Description: as §1

[22] = test system: Strep.suis (group D) SPS11; experiment: as above; settings: Streptococcus suis, diagnostic sensitivity test agar, 24 hours, 37° C.
Description: as §1

[23] = test system: Strep.uberis SPU1; experiment: as above; settings: Streptococcus uberis, diagnostic sensitivity test agar, 24 hours, 37° C.
Description: as §1

[24] = test system: E.coli NCTC 10418; experiment: MIC by serial dilution in nutrient agar (human bacteria, Table 1); settings: Escherichia coli, NCTC10418, 5% "chocolated" horse blood
[25] = test system: M.suipneumoniae J2206/183b; experiment: Anti-mycoplasmal MIC by serial dilution in Friis broth (Table 3); settings: Mesomycoplasma hyopneumoniae, read-out: in vitro MIC
Text: (§2) *Determined by serial dilution in Friis broth (Friis N.F. 1975. Nord. Vet
(§3) Med. 27, 337) in microtiter plates using a modification of the metabolite
(§4) inhibition test (TaylorRobinson D. 1967. Postgrad. Med. J., 43, suppl.

[26] = test system: M.dispar NCTC 10125; experiment: as above; settings: read-out: in vitro MIC
Text: as §2, §3, §4

[27] = test system: M.pneumoniae 427a; experiment: as above; settings: Mycoplasmoides pneumoniae, read-out: in vitro MIC
Text: as §2, §3, §4

[28] = test system: Bacillus subtilis 6633; experiment: MIC by serial dilution in nutrient agar (human bacteria, Table 1); settings: 5% "chocolated" horse blood
[29] = test system: Strep.pyogenes C 2761; experiment: as above; settings: Streptococcus pyogenes, C2761, 5% "chocolated" horse blood
[30] = test system: P. mirabilis 889; experiment: as above; settings: Proteus mirabilis, 5% "chocolated" horse blood
[31] = test system: Corynebacterium xerosis 9755; experiment: as above; settings: 5% "chocolated" horse blood
[32] = test system: Strep.faecalis I; experiment: as above; settings: Enterococcus faecalis, 5% "chocolated" horse blood
[33] = test system: Staph.aureus Oxford; experiment: as above; settings: Staphylococcus aureus; Staph.aureus Oxford; nutrient agar, 5% "chocolated" horse blood; read-out: MIC
[34] = test system: Strep.pyogenes A 64/848; experiment: as above; settings: Streptococcus pyogenes, A64/848, 5% "chocolated" horse blood
[35] = test system: Sarcina lutea 8340; experiment: as above; settings: Micrococcus luteus, 5% "chocolated" horse blood
[36] = test system: Neisseria catarrhalis 1502; experiment: as above; settings: 5% "chocolated" horse blood
[37] = test system: E.coli ESS; experiment: as above; settings: Escherichia coli, 5% "chocolated" horse blood
[38] = test system: K. aerogenes A; experiment: as above; settings: Klebsiella aerogenes, 5% "chocolated" horse blood
[39] = test system: Strep.pyogenes B 2788; experiment: as above; settings: Streptococcus pyogenes, B2788, 5% "chocolated" horse blood
[40] = test system: Haemophilus influenzae Wy21; experiment: as above; settings: 5% "chocolated" horse blood

CC(=O)C(C)C1OC1CC1COC(C/C(C)=C/C(=O)OCCCCCCCCC(=O)O)C(O)C1O (stereo not shown) [Example 4, Sodium 13--Oxopseudomonate A]
MIC [1]: > 100 µg/mL
MIC [2]: 0.5 µg/mL
MIC [3]: 0.5 µg/mL
MIC [4]: 0.05 µg/mL
MIC [5]: 1.25 µg/mL
MIC [6]: 10 µg/mL
MIC [7]: 1.25 µg/mL
MIC [8]: > 80 µg/mL
MIC [9]: 10 µg/mL
MIC [10]: 80 µg/mL
MIC [11]: 1.25 µg/mL
MIC [12]: 80 µg/mL
MIC [13]: > 80 µg/mL
MIC [14]: > 80 µg/mL
MIC [15]: 0.625 µg/mL
MIC [16]: 0.625 µg/mL
MIC [17]: > 80 µg/mL
MIC [18]: > 80 µg/mL
MIC [19]: > 80 µg/mL
MIC [20]: 1.25 µg/mL
MIC [21]: > 80 µg/mL
MIC [22]: 20 µg/mL
MIC [23]: 0.312 µg/mL
MIC [24]: > 100 µg/mL
MIC [25]: 31.2 µg/mL
MIC [26]: 3.9 µg/mL
MIC [27]: 250 µg/mL
MIC [28]: 0.1 µg/mL
MIC [29]: 0.5 µg/mL
MIC [30]: > 100 µg/mL
MIC [31]: > 100 µg/mL
MIC [32]: > 100 µg/mL
MIC [33]: 0.2 µg/mL
MIC [34]: 1 µg/mL
MIC [35]: > 100 µg/mL
MIC [36]: 0.5 µg/mL
MIC [37]: 2.5 µg/mL
MIC [38]: > 100 µg/mL
MIC [39]: 1 µg/mL
MIC [40]: 0.1 µg/mL
